From patent publication US20190091187A1 (Orbus Therapeutics, Inc., priority 2016, published 2019)
Like-named read-outs stand apart in the source and are kept apart here.

How the values were obtained:
[1] = test system: newly diagnosed AG and GBM patients; experiment: Phase 3 study of eflornithine with PCV versus PCV, adverse events; type: in vivo, human; conditions: Eflornithine-PCV minus PCV, N = 500
Source text: As used herein, the term “toxicity” refers to any one of the side effects referred to above in Table 2, regardless of the severity of the side effect or its possible effect on the course of treatment.

neuroblastoma cells = conditions: arrest of cell division between G1 and mitosis; cited from earlier work
[2] = test system: AG and GBM patients treated at recurrence; conditions: 3.6 g/m^2 every 8 hours, N = 89, cited from earlier work
[3] = test system: biopsied skin actinic keratosis; conditions: topical, compared to placebo-treated skin, cited from earlier work
low-grade gliomas = conditions: adjuvant chemotherapy; recurrent tumors; driver mutations in RB and AKT-mTOR pathways; cited from earlier work
Big Blue Rat-2 cells = conditions: 9.1 at 0 mM, cited from earlier work

eflornithine
Anemia, Excess AEs due to Eflornithine ([1]; Toxicity Grade 1): 12.5%
Anorexia, Excess AEs due to Eflornithine ([1]; Toxicity Grade 1): −1.5%
Constipation, Excess AEs due to Eflornithine ([1]; Toxicity Grade 1): −1.9%
Diarrhea, Excess AEs due to Eflornithine ([1]; Toxicity Grade 1): 25.4%
Fatigue, Excess AEs due to Eflornithine ([1]; Toxicity Grade 1): 4.7%
Granulocytopenia, Excess AEs due to Eflornithine ([1]; Toxicity Grade 1): 2.4%
Headache, Excess AEs due to Eflornithine ([1]; Toxicity Grade 1): −1.9%
Hearing loss, Excess AEs due to Eflornithine ([1]; Toxicity Grade 1): 0.0%
Leukopenia, Excess AEs due to Eflornithine ([1]; Toxicity Grade 1): −3.4%
Nausea only, Excess AEs due to Eflornithine ([1]; Toxicity Grade 1): 1.0%
Pruritis and itching, Excess AEs due to Eflornithine ([1]; Toxicity Grade 1): −0.7%
Thrombocytopenia, Excess AEs due to Eflornithine ([1]; Toxicity Grade 1): 4.6%
Vomiting, Excess AEs due to Eflornithine ([1]; Toxicity Grade 1): 5.2%
Anemia, Excess AEs due to Eflornithine ([1]; Toxicity Grade 2): 15.6%
Anorexia, Excess AEs due to Eflornithine ([1]; Toxicity Grade 2): 2.5%
Constipation, Excess AEs due to Eflornithine ([1]; Toxicity Grade 2): −0.7%
Diarrhea, Excess AEs due to Eflornithine ([1]; Toxicity Grade 2): 17.4%
Fatigue, Excess AEs due to Eflornithine ([1]; Toxicity Grade 2): 6.9%
Granulocytopenia, Excess AEs due to Eflornithine ([1]; Toxicity Grade 2): 1.1%
Headache, Excess AEs due to Eflornithine ([1]; Toxicity Grade 2): 1.3%
Hearing loss, Excess AEs due to Eflornithine ([1]; Toxicity Grade 2): 1.2%
Leukopenia, Excess AEs due to Eflornithine ([1]; Toxicity Grade 2): 1.2%
Nausea only, Excess AEs due to Eflornithine ([1]; Toxicity Grade 2): 0.0%
Pruritis and itching, Excess AEs due to Eflornithine ([1]; Toxicity Grade 2): 0.9%
Thrombocytopenia, Excess AEs due to Eflornithine ([1]; Toxicity Grade 2): 10.5%
Vomiting, Excess AEs due to Eflornithine ([1]; Toxicity Grade 2): 1.1%
Anemia, Excess AEs due to Eflornithine ([1]; Toxicity Grade 3): 4.5%
Anorexia, Excess AEs due to Eflornithine ([1]; Toxicity Grade 3): 1.2%
Constipation, Excess AEs due to Eflornithine ([1]; Toxicity Grade 3): 0.4%
Diarrhea, Excess AEs due to Eflornithine ([1]; Toxicity Grade 3): 6.0%
Fatigue, Excess AEs due to Eflornithine ([1]; Toxicity Grade 3): 0.8%
Granulocytopenia, Excess AEs due to Eflornithine ([1]; Toxicity Grade 3): −3.9%
Headache, Excess AEs due to Eflornithine ([1]; Toxicity Grade 3): 0.4%
Hearing loss, Excess AEs due to Eflornithine ([1]; Toxicity Grade 3): 0.8%
Leukopenia, Excess AEs due to Eflornithine ([1]; Toxicity Grade 3): 0.0%
Nausea only, Excess AEs due to Eflornithine ([1]; Toxicity Grade 3): 0.9%
Pruritis and itching, Excess AEs due to Eflornithine ([1]; Toxicity Grade 3): −0.3%
Thrombocytopenia, Excess AEs due to Eflornithine ([1]; Toxicity Grade 3): 3.5%
Vomiting, Excess AEs due to Eflornithine ([1]; Toxicity Grade 3): 4.5%
Anemia, Excess AEs due to Eflornithine ([1]; Toxicity Grade 4): 2.0%
Anorexia, Excess AEs due to Eflornithine ([1]; Toxicity Grade 4): 0.0%
Constipation, Excess AEs due to Eflornithine ([1]; Toxicity Grade 4): 0.4%
Diarrhea, Excess AEs due to Eflornithine ([1]; Toxicity Grade 4): 0.8%
Fatigue, Excess AEs due to Eflornithine ([1]; Toxicity Grade 4): 0.0%
Granulocytopenia, Excess AEs due to Eflornithine ([1]; Toxicity Grade 4): 1.8%
Headache, Excess AEs due to Eflornithine ([1]; Toxicity Grade 4): 0.0%
Hearing loss, Excess AEs due to Eflornithine ([1]; Toxicity Grade 4): 0.0%
Leukopenia, Excess AEs due to Eflornithine ([1]; Toxicity Grade 4): 0.9%
Nausea only, Excess AEs due to Eflornithine ([1]; Toxicity Grade 4): 0.0%
Pruritis and itching, Excess AEs due to Eflornithine ([1]; Toxicity Grade 4): 0.0%
Thrombocytopenia, Excess AEs due to Eflornithine ([1]; Toxicity Grade 4): 2.1%
Vomiting, Excess AEs due to Eflornithine ([1]; Toxicity Grade 4): −1.2%
effect on intracellular proteins p21 and p27kip-1 (neuroblastoma cells): increase
Ototoxicity, patients (%) ([2]; Toxicity Grade 1): (7.9) %
Ototoxicity, patients n ([2]; Toxicity Grade 1): 7
Ototoxicity, patients (%) ([2]; Toxicity Grade 2): (5.6) %
Ototoxicity, patients n ([2]; Toxicity Grade 2): 5
Ototoxicity, patients (%) ([2]; Toxicity Grade 3): (6.7) %
Ototoxicity, patients n ([2]; Toxicity Grade 3): 6
reduced the percentage of p53-positive cells ([3]; P=0.04): 22%
reduction of the frequency of p53 mutations [3]: not the frequency of p53 mutations

Cn1nnc2c(C(N)=O)ncn2c1=O [TMZ, temozolomide]
patients whose tumors followed an alternative evolutionary path to high-grade glioma with hypermutation (low-grade gliomas): 6 of 10
lacI mutation frequency (Big Blue Rat-2 cells; 0.5 mM TMZ): 48.9
lacI mutation frequency (Big Blue Rat-2 cells; 1 mM TMZ): 89.7
